According to article PMC6327263, “Evaluation of Novel 3-Hydroxyflavone Analogues as HDAC Inhibitors against Colorectal Cancer” (Advances in Pharmacological Sciences, 2018):
Several values for one entry are separate records, joined by “and”; a condition that tells them apart may be missing. Identical values can stand only once. Marks after values point to notes of the source that are not given here.

Key:
[1] = tested on: HDAC enzyme in HCT116 cells; test: Whole cell HDAC inhibition assay; format: cell-based; settings: Homo sapiens, HCT-116, HCT116, 18 h treatment, mean ± SEM of three experiments
Method: Confluent HCT116 cells were harvested and seeded in 96 well sterile black well plates at a density of 2000 cells per well and incubated overnight. Furthermore, the cells were treated with different concentrations of test compounds for a period of 18 h followed by the addition of […] BOC-Ac-Lys-AMC substrate and incubated for 1 h. […] The reaction was then allowed to proceed for 15 min at 37°C. Finally, the fluorescence intensity was measured at 360 nm excitation and 460 nm emission using a fluorescence microplate reader (FLx800, BioTek Instruments Inc., Winooski, VT, USA).

DMH-induced colon cancer = format: in vivo, Wistar rats; settings: for ACF/5 cm^2 / Adenocarcinoma: 21 days treatment, quercetin, QMJ-2, QMJ-5 100 mg/kg p.o., mean ± SEM of six animals; for ACF/5 cm^2: DMH control 25 ± 2.1; for Adenocarcinoma: count in colon, DMH control 17 ± 1.7; for spleen index / kidney index / liver index: rat, in vivo, po, 100 mg/kg
Method: The two test compounds (QMJ-2 and QMJ-5) and quercetin were suspended in 0.25% w/v sodium carboxymethyl cellulose (CMC) and were administered orally (p.o.). 5-Fluorouracil (5-FU) which was used as a standard was procured in the form of injection and was administered intraperitonially (i.p.).
Colon cancer in experimental animals was induced using the highly specific carcinogen DMH, with few modifications from the previously described procedure. DMH was administered at a dose of 30 mg/kg i.p. once a week for 20 weeks. The incidence of aberrant crypt foci (ACF) and adenocarcinoma were confirmed by sacrificing few animals after 20 weeks of induction with DMH. Furthermore, the animals were randomized into five experimental groups, and various treatments were administered for a period of 21 days followed by the assessment of different parameters in the experimental animals.
(1) Experimental Groups • Group 1: animals received 0.25% CMC in water p.o. • Group 2: animals received 0.25% CMC in water p.o. (DMH control) • Group 3: animals received 5-FU at 10 mg/kg i.p. • Group 4: animals received quercetin at 100 mg/kg p.o. • Group 5: animals received QMJ-2 at 100 mg/kg p.o. • Group 6: animals received QMJ-5 at 100 mg/kg p.o.
(2) ACF Formation and Adenocarcinoma Incidence. The entire colon was excised from the experimental animals and was used to study the incidence of adenocarcinoma. The count and size were noted from each animal. For ACF formation, the distal part of the colon was excised, and the tissue was then cut open and fixed with 10% buffered formalin for 12 h. Following this, the tissue was stained with 0.1% methylene blue in PBS for 5 min. The tissues were then observed under microscope for ACF formation and were calculated as the number of counts/5 cm^2 in colon tissue.
(3) Colon Weight/Length Ratio and Organ Index. Length of the excised colon was measured in centimeters, and weight was measured in g. Colon weight/length ratio was then calculated. For the determination of organ index, major organs including spleen, liver, and kidney of the experimental animals were weighed in g and the respective index was calculated. […]

[2] = tested on: caspase 3/7 in HCT116 cells; test: Caspase 3/7 activation assay; format: cell-based, human; settings: SAHA 5 µM, quercetin 100 µM, QMJ-2 100 µM, QMJ-5 50 µM; for percentage of apoptotic cells (Apoptotic/Dead, caspase 3/7): normal control 24.60%; for percentage of live cells (caspase 3/7): normal control 69.40%
Method: The downstream signaling pathway of apoptosis was determined using the caspase 3/7 activation assay. In brief, as per the caspase 3/7 activation kit protocol (#MCH100108), 1 × 10^6 cells were seeded in the cell culture dish and after overnight adherence, were incubated with the test compounds. The cells were detached by trypsinization, centrifuged, and washed with PBS. Cell suspension (50 µl) was mixed with the caspase 3/7 antibody reagent (5 µl) and incubated at 37°C temperature for 30 min. 7-AAD (7-amino-actinomycin D) working solution (150 µl) was added, and stained cells were then analyzed in Muse Cell Analyzer (#0500-3115 Merck Millipore).

HCT116 cells = test: Annexin V staining; format: cell-based, human; settings: SAHA 5 µM, quercetin 100 µM, QMJ-2 100 µM, QMJ-5 50 µM, normal control 21.30%
Method: Mechanism of cell death induced by synthesized analogues was determined using annexin V staining. In brief, as per annexin V flow cytometry kit protocol (#MCH100105), 1 × 10^6 cells were seeded in a cell culture dish and after overnight adherence, were incubated with test compounds. Cells were then detached by trypsinization, centrifuged, and washed with PBS. Cell suspension (100 µl) was mixed with Muse annexin V reagent (100 µl) and incubated for 20 min at room temperature. The stained cells were quantitatively analyzed for live, early, and late apoptosis using Muse cell analyzer (#0500-3115 Merck Millipore).

HDAC8 = test: Western blotting, HDAC8 expression; format: cell-based, human; settings: HCT116 cells, 24 h, compared to normal control
Method: (§1) After various treatments for 24 h, cells were lysed, and protein quantification of the lysates was estimated using the BCA™ kit (Thermo Fisher Scientific Inc., Waltham, MA, USA). Proteins samples (30 µg) were resolved on a 10% SDS-PAGE and transferred onto a PVDF membrane and blocked with 5% nonfat milk in TBST (tris-buffered saline with Tween-20) buffer for 1 h followed by washing in TBST buffer. The membrane was then probed with primary antibodies (GAPDH, HDAC8, p21^Waf1/Cip1, and acetyl-histone H3[Ac-Lys^9]) and incubated overnight at 4°C. The membrane was washed with TBST buffer and incubated with horseradish peroxidase-conjugated secondary antibody for 1 h at room temperature. Signal was captured using SuperSignal™ West Pico Plus chemiluminescent substrate (Thermo Fischer Scientific Inc., Waltham, MA, USA) on gel documentation system (G : BOX Chemi XRQ, Syngene).

Wistar rats = format: in vivo; settings: 2000 mg/kg p.o., limit test, 14 days observation
Method: Animal care and handling were carried out according to the guidelines of the Committee for the Purpose of Control and Supervision of Experiments on Animals (CPCSEA), after seeking the approval of the research proposal by institutional animal ethics committee (IAEC) (IAEC/KMC/23/2015). Male Wistar rats inbred at the central animal research facility (CARF), Manipal academy of higher education (MAHE), was used in the present study. […] The animals were housed in sterile polypropylene cages containing sterile paddy husk and were provided with 12 h light and dark cycles.
The safe dose of the promising two analogues (QMJ-2 and QMJ-5) and quercetin were evaluated using Organization for Economic Cooperation and Development (OECD), 425 guidelines. Limit test was performed using 2000 mg/kg dose.

p21^Waf1/Cip1 = test: Western blotting, p21Waf1/Cip1 expression; format: cell-based, human; settings: HCT116 cells, 24 h, compared to normal control
Method: as §1

## O=c1c(O)c(-c2ccc(O)c(O)c2)oc2cc(O)cc(O)c12 [Quercetin, quercetin, reference compound]
[1]
  IC50: 168 ± 6.9 µM
DMH-induced colon cancer; 5-FU 10 mg/kg i.p.
  ACF/5 cm^2: 19 ± 2.6 /5 cm^2
  Adenocarcinoma: 15 ± 1.1
DMH-induced colon cancer
  spleen index: significant decrease
[2]
  percentage of apoptotic cells (Apoptotic/Dead, caspase 3/7): 59.65%
HCT116 cells
  percentage of cells undergoing late apoptosis (Late Apop./Dead, annexin V): 35.80%
HDAC8
  HDAC8 expression: significant reduction
Wistar rats
  acute toxicity, tolerability: safe and well tolerated
  mortality: no mortality

## Cc1ccc(-c2oc3ccccc3c(=O)c2O)cc1 [QMJ-2, 3-Hydroxy-2-(4-methylphenyl)-4H-1-benzopyran-4-one]
[1]
  IC50: 182 ± 22 µM
DMH-induced colon cancer; 5-FU 10 mg/kg i.p.
  ACF/5 cm^2: 16 ± 2.1 /5 cm^2 and 16 ± 2.1^a /5 cm^2
  Adenocarcinoma: 14 ± 1.3
DMH-induced colon cancer; compared with DMH control, 5-FU 10 mg/kg i.p., others 100 mg/kg p.o., 21 days
  colon weight/length ratio: significant decrease
DMH-induced colon cancer
  kidney index: no significant change
  liver index: Significant reduction
  spleen index: significant decrease
[2]
  percentage of apoptotic cells (Apoptotic/Dead, caspase 3/7): 55.70%
  percentage of live cells (caspase 3/7): 37.40%
HCT116 cells
  percentage of cells undergoing late apoptosis (Late Apop./Dead, annexin V): 35.20%
p21^Waf1/Cip1
  expression of p21^Waf1/Cip1: increased

## Cc1ccc(-c2oc3cc(C)ccc3c(=O)c2O)cc1 [QMJ-5, 3-Hydroxy-7-methyl-2-(4-methylphenyl)-4H-1-benzopyran-4-one]
[1]
  IC50: 70.2 ± 4.3 µM
DMH-induced colon cancer; 5-FU 10 mg/kg i.p.
  ACF/5 cm^2: 15 ± 2.6 /5 cm^2 and 15 ± 2.6^a /5 cm^2
  Adenocarcinoma: 11 ± 0.8^a
DMH-induced colon cancer
  kidney index: no significant change
  liver index: Significant reduction
[2]
  percentage of apoptotic cells (Apoptotic/Dead, caspase 3/7): 83.55%
  percentage of live cells (caspase 3/7): 8.05%
HCT116 cells
  percentage of cells undergoing late apoptosis (Late Apop./Dead, annexin V): 38.65%
p21^Waf1/Cip1
  expression of p21^Waf1/Cip1: increased
HDAC8
  HDAC8 expression: significant reduction
